{"source": "patent US20230365546A1", "about": "“5-SUBSTITUTED INDOLE 3-AMIDE DERIVATIVES, PREPARATION METHOD AND USE THEREOF” (ORIGIANT PHARMACEUTICAL CO., LTD, priority 2020, published 2023)", "key": {"[1]": {"target": "PI3 Kinase (p110a(H1047R)/p85a)(h) (Homo sapiens (Human), UniProt P42336, H1047R)", "assay": "Kinase Profiler 10 μM panel", "procedure": "(§1) In vitro kinase assays were conducted using Kinase Profiler services provided by Eurofins. The experimental method was as follows: the small molecule compound to be tested (0.001-10 μM), the protein kinase to be tested were incubated with a buffer containing substrate, 10 mM magnesium acetate, and [γ-^33P-ATP], the reaction was started by adding Mg\\TPmix, after incubation for a period of time at room temperature, a 3% phosphate solution was added to the buffer to stop the reaction. Subsequently, 10 μL of the reaction mixture was quantitatively pipetted onto P30 filter paper, which was washed three times with 75 mM phosphate solution and then once with methanol. The P30 filter paper was air-dried and scintillation fluid was added for scintillation counting."}, "[2]": {"test_system": "422 kinases (including mutants)", "assay": "Kinase selectivity profile over the Eurofins panel", "format": "biochemical", "settings": "10 μM, Tables 3 and 4, FIGS. 1 and 2", "from_the_text": "The selectivity profiles for Compounds 34 and 94 were plotted according to the data in Table 3 and Table 4. Wherein the red circular spot indicated the kinase were inhibited obviously, and the larger the radius of the red spot, the higher the inhibition against the kinase, and vice versa."}, "Pim-2(h)": {"target": "Pim-2(h) (Homo sapiens (Human), UniProt Q9P1W9)", "assay": "Kinase Profiler 10 μM panel", "procedure": "as §1"}, "DRAK1(h)": {"target": "DRAK1(h) (Homo sapiens (Human), UniProt Q9UEE5)", "assay": "Kinase Profiler 10 μM panel", "procedure": "as §1"}, "CDK6/cyclinD3(h)": {"target": "CDK6/cyclinD3(h) (Homo sapiens (Human), UniProt Q00534)", "sequence (Q00534 whole entry)": "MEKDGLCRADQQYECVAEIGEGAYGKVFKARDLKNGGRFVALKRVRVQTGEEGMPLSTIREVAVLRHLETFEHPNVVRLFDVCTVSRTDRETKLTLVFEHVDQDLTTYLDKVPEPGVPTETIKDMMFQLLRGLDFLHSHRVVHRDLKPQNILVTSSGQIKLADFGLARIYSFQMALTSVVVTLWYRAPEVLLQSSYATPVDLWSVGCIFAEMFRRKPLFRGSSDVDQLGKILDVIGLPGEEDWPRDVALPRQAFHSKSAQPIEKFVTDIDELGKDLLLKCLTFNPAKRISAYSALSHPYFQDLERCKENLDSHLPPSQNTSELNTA", "sequence (P30281 whole entry partner)": "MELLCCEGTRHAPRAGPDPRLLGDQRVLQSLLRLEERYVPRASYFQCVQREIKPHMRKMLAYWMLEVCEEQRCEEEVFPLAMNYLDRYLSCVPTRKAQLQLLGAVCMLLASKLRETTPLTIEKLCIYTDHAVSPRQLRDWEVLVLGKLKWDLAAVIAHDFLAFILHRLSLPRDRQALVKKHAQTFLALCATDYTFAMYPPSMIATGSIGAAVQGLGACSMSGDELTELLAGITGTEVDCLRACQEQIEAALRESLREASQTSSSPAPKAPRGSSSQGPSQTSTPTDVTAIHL", "assay": "Kinase Profiler 10 μM panel", "procedure": "as §1"}, "STK32C(h)": {"target": "STK32C(h) (Homo sapiens (Human), UniProt Q86UX6)", "sequence (Q86UX6 whole entry)": "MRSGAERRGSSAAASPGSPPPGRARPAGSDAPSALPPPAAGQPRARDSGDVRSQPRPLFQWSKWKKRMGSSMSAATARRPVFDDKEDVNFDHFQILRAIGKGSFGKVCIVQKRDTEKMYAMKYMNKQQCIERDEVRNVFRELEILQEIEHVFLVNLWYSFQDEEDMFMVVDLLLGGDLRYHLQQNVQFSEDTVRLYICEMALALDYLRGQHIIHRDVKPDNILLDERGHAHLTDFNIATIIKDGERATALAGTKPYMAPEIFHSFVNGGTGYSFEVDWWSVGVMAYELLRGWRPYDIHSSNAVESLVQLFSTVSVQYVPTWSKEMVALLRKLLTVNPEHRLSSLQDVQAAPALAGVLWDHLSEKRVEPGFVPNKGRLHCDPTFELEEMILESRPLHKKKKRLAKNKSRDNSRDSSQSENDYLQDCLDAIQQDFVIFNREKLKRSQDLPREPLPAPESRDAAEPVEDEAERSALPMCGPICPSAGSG", "assay": "Kinase Profiler 10 μM panel", "procedure": "as §1"}, "STK16(h)": {"target": "STK16(h) (Homo sapiens (Human), UniProt O75716)", "assay": "Kinase Profiler 10 μM panel", "procedure": "as §1"}, "HT-29 cells": {"test_system": "HT-29 cells", "assay": "Protection against programmed necrosis of HT-29 cells (TNF α/Smac mimetic/Z-VAD-FMK, CCK8)", "format": "cell-based", "settings": "Homo sapiens"}, "MLK1(h)": {"target": "MLK1(h) (Homo sapiens (Human), UniProt P80192)", "assay": "Kinase Profiler 10 μM panel", "procedure": "as §1"}, "PAK1(h)": {"target": "PAK1(h) (Homo sapiens (Human), UniProt Q13153)", "assay": "Kinase Profiler 10 μM panel", "procedure": "as §1"}, "MOK(h)": {"target": "MOK(h) (Homo sapiens (Human), UniProt Q9UQ07)", "assay": "Kinase Profiler 10 μM panel", "procedure": "as §1"}, "Flt4(h)": {"target": "Flt4(h) (Homo sapiens (Human), UniProt P35916)", "assay": "Kinase Profiler 10 μM panel", "procedure": "as §1"}, "PKCα(h)": {"target": "PKCα(h) (Homo sapiens (Human), UniProt P17252)", "assay": "Kinase Profiler 10 μM panel", "procedure": "as §1"}, "PIP5K1a(h)": {"target": "PIP5K1a(h) (Homo sapiens (Human), UniProt Q99755)", "assay": "Kinase Profiler 10 μM panel", "procedure": "as §1"}, "PTK5(h)": {"target": "PTK5(h) (Homo sapiens (Human), UniProt P42685)", "assay": "Kinase Profiler 10 μM panel", "procedure": "as §1"}, "IRAK1(h)": {"target": "IRAK1(h) (Homo sapiens (Human), UniProt P51617)", "assay": "Kinase Profiler 10 μM panel", "procedure": "as §1"}, "TSSK2(h)": {"target": "TSSK2(h) (Homo sapiens (Human), UniProt Q96PF2)", "assay": "Kinase Profiler 10 μM panel", "procedure": "as §1"}, "CDK3/cyclinE(h)": {"target": "CDK3/cyclinE(h) (Homo sapiens (Human), UniProt Q00526)", "assay": "Kinase Profiler 10 μM panel", "procedure": "as §1"}, "Flt1(h)": {"target": "Flt1(h) (Homo sapiens (Human), UniProt P17948)", "sequence (P17948 27-1338)": "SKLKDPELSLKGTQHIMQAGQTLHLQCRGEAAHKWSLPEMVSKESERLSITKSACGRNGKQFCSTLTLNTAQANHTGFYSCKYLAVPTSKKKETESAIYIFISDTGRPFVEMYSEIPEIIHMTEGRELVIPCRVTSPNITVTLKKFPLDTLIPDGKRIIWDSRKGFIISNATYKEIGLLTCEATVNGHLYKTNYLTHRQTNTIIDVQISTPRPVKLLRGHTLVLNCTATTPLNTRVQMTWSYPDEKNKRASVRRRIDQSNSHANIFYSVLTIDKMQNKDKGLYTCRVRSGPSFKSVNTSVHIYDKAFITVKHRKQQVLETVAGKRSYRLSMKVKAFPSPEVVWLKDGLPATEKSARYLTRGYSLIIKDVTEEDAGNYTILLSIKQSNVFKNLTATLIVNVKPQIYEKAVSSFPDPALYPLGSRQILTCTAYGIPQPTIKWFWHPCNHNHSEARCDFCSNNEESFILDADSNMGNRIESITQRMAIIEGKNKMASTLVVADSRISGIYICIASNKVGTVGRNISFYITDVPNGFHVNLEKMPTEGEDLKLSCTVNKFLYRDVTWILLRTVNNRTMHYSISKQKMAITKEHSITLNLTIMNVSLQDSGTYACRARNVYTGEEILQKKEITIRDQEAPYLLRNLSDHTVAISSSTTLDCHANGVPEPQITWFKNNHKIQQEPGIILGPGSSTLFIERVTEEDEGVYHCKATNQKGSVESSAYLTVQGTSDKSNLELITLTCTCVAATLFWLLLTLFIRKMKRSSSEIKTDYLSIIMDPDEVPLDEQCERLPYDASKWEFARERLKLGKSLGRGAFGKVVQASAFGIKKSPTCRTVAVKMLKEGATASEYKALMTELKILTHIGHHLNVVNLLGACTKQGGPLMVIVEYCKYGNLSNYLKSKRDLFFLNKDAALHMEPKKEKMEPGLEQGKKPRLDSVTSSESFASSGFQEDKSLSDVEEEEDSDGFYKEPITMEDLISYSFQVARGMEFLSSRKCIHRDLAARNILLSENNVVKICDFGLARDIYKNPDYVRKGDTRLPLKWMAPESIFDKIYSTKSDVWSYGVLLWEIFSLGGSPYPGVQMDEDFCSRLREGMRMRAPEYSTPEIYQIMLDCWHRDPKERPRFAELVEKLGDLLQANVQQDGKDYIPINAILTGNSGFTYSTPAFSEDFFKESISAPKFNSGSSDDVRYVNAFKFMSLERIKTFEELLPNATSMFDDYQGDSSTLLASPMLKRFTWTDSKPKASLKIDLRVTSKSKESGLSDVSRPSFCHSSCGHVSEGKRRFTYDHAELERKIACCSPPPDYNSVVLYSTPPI", "assay": "Kinase Profiler 10 μM panel", "procedure": "as §1"}, "CLK2(h)": {"target": "CLK2(h) (Homo sapiens (Human), UniProt P49760)", "assay": "Kinase Profiler 10 μM panel", "procedure": "as §1"}, "PKG1α(h)": {"target": "PKG1α(h) (Homo sapiens (Human), UniProt Q13976)", "assay": "Kinase Profiler 10 μM panel", "procedure": "as §1"}, "EphA1(h)": {"target": "EphA1(h) (Homo sapiens (Human), UniProt P21709)", "assay": "Kinase Profiler 10 μM panel", "procedure": "as §1"}, "[3]": {"target": "PI3 Kinase (p110b/p85b)(m) (Mus musculus (Mouse), UniProt Q8BTI9)", "sequence (Q8BTI9 whole entry)": "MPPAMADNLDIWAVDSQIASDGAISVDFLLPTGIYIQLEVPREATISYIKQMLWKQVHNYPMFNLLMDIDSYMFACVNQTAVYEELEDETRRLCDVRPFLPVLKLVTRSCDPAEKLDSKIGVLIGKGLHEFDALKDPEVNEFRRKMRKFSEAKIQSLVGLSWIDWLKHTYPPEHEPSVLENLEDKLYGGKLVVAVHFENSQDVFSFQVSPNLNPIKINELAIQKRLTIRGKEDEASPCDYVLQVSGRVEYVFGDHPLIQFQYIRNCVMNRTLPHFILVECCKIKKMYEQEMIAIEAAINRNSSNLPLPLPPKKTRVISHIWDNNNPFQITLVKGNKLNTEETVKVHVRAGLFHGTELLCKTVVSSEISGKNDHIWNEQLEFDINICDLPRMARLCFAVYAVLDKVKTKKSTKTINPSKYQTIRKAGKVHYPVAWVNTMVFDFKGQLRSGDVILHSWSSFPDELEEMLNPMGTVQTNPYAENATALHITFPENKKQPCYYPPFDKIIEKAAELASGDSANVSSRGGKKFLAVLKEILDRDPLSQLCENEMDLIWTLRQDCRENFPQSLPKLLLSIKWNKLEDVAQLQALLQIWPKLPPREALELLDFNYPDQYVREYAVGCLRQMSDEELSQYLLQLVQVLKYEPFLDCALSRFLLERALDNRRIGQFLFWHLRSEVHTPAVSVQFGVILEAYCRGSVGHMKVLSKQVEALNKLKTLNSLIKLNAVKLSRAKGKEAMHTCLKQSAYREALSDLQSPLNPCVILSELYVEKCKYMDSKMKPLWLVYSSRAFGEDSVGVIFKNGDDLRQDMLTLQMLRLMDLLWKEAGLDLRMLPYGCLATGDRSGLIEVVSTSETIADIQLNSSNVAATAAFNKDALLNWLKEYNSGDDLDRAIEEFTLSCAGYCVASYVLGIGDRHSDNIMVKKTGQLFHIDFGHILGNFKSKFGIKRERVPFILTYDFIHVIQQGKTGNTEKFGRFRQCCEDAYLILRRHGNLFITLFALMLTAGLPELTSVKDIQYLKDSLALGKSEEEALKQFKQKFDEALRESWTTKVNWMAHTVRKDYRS", "sequence (O08908 whole entry partner)": "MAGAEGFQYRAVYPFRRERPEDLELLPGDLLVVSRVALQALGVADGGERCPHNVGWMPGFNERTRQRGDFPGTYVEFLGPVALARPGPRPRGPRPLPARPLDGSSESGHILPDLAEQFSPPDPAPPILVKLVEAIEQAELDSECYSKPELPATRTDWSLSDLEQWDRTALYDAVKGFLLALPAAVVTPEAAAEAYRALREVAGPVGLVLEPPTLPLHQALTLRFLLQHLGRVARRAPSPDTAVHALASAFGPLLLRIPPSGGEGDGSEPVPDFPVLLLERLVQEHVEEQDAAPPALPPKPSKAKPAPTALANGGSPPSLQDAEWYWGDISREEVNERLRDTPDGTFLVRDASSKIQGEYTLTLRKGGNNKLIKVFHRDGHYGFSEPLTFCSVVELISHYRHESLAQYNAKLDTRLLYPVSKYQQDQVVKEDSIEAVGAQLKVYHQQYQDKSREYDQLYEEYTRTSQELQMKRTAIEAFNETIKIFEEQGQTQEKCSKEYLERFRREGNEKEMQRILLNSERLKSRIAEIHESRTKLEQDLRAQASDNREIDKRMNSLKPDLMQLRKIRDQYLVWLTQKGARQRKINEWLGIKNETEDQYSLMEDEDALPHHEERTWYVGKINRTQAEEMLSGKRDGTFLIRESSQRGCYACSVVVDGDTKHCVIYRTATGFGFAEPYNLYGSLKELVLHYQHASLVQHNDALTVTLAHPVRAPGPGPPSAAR", "assay": "Kinase Profiler 10 μM panel", "procedure": "as §1"}, "Abl(h)": {"target": "Abl(h) (Homo sapiens (Human), UniProt P00519)", "assay": "Kinase Profiler 10 μM panel", "procedure": "as §1"}, "MYLK2(h)": {"target": "MYLK2(h) (Homo sapiens (Human), UniProt Q9H1R3)", "assay": "Kinase Profiler 10 μM panel", "procedure": "as §1"}, "MEKK2(h)": {"target": "MEKK2(h) (Homo sapiens (Human), UniProt Q9Y2U5)", "assay": "Kinase Profiler 10 μM panel", "procedure": "as §1"}, "Yes(h)": {"target": "Yes(h) (Homo sapiens (Human), UniProt P07947)", "assay": "Kinase Profiler 10 μM panel", "procedure": "as §1"}, "[4]": {"settings": "TNF α/Smac mimetic/Z-VAD-FMK induced 24 h, CCK8, read-out: HT-29 (EC50)"}, "[5]": {"settings": "TSZ-induced, FIG. 3, read-out: EC50 value, programmed necrosis model of HT-29"}}, "note": "Where two headings read alike, the source gives them in different places.", "data": [{"smiles": "C[C@H](NC(=O)c1cn(C)c2ccc(-c3ccn4nc(NC(=O)C5CC5)nc4c3)cc12)c1cccc(F)c1", "note": "[Compound 94, (S)-5-(2-(cyclopropanecarboxamido)-[1,2,4]triazolo[1,5-a]pyridin-7-yl)-N-(1-(3-fluorophenyl)ethyl)-1-methyl-1H-indole-3-carboxamide]", "values": [{"measurement": "Inhibition ratio/%", "setting": "[1]", "result": 24, "unit": "%"}, {"measurement": "Kinase selectivity", "setting": "[2]", "result": "good kinase selectivity"}, {"measurement": "Inhibition ratio/%", "setting": "Pim-2(h)", "result": "−14", "unit": "%"}, {"measurement": "Inhibition ratio/%", "setting": "DRAK1(h)", "result": 30, "unit": "%"}, {"measurement": "Inhibition ratio/%", "setting": "CDK6/cyclinD3(h)", "result": 80, "unit": "%"}, {"measurement": "Inhibition ratio/%", "setting": "STK32C(h)", "result": 22, "unit": "%"}, {"measurement": "Inhibition ratio/%", "setting": "STK16(h)", "result": 20, "unit": "%"}, {"measurement": "EC50", "setting": "HT-29 cells; [4]", "result": "< 1", "unit": "nM"}, {"measurement": "EC50", "setting": "HT-29 cells; [5]", "result": 0.012, "unit": "nM"}, {"measurement": "Inhibition ratio/%", "setting": "MLK1(h)", "result": 94, "unit": "%"}, {"measurement": "Inhibition ratio/%", "setting": "PAK1(h)", "result": 18, "unit": "%"}, {"measurement": "Inhibition ratio/%", "setting": "MOK(h)", "result": "−15", "unit": "%"}, {"measurement": "Inhibition ratio/%", "setting": "Flt4(h)", "result": 34, "unit": "%"}, {"measurement": "Inhibition ratio/%", "setting": "PKCα(h)", "result": 16, "unit": "%"}, {"measurement": "Inhibition ratio/%", "setting": "PIP5K1a(h)", "result": 16, "unit": "%"}, {"measurement": "Inhibition ratio/%", "setting": "PTK5(h)", "result": 48, "unit": "%"}, {"measurement": "Inhibition ratio/%", "setting": "IRAK1(h)", "result": 23, "unit": "%"}, {"measurement": "Inhibition ratio/%", "setting": "TSSK2(h)", "result": 52, "unit": "%"}, {"measurement": "Inhibition ratio/%", "setting": "CDK3/cyclinE(h)", "result": 65, "unit": "%"}, {"measurement": "Inhibition ratio/%", "setting": "Flt1(h)", "result": 42, "unit": "%"}, {"measurement": "Inhibition ratio/%", "setting": "CLK2(h)", "result": 77, "unit": "%"}, {"measurement": "Inhibition ratio/%", "setting": "PKG1α(h)", "result": 12, "unit": "%"}, {"measurement": "Inhibition ratio/%", "setting": "EphA1(h)", "result": "−12", "unit": "%"}, {"measurement": "Inhibition ratio/%", "setting": "[3]", "result": 44, "unit": "%"}, {"measurement": "Inhibition ratio/%", "setting": "Abl(h)", "result": 32, "unit": "%"}, {"measurement": "Inhibition ratio/%", "setting": "MYLK2(h)", "result": "−8", "unit": "%"}, {"measurement": "Inhibition ratio/%", "setting": "MEKK2(h)", "result": "−10", "unit": "%"}, {"measurement": "Inhibition ratio/%", "setting": "Yes(h)", "result": 29, "unit": "%"}]}, {"smiles": "C[C@H](NC(=O)c1c[nH]c2ccc(-c3ccc4nc(NC(=O)C5CC5)sc4c3)cc12)c1cccc(F)c1", "note": "[Compound 34, (S)-5-(2-(cyclopropanecarboxamido)benzo[d]thiazol-6-yl)-N-(1-(3-fluorophenyl)ethyl)-1H-indole-3-carboxamide]", "values": [{"measurement": "Inhibition ratio", "setting": "[1]", "result": 34, "unit": "%"}, {"measurement": "Kinase selectivity", "setting": "[2]", "result": "good kinase selectivity"}, {"measurement": "Inhibition ratio", "setting": "Pim-2(h)", "result": "−5", "unit": "%"}, {"measurement": "Inhibition ratio", "setting": "DRAK1(h)", "result": 38, "unit": "%"}, {"measurement": "Inhibition ratio", "setting": "CDK6/cyclinD3(h)", "result": 6, "unit": "%"}, {"measurement": "Inhibition ratio", "setting": "STK32C(h)", "result": 3, "unit": "%"}, {"measurement": "Inhibition ratio", "setting": "STK16(h)", "result": 17, "unit": "%"}, {"measurement": "EC50", "setting": "HT-29 cells; [4]", "result": "< 1", "unit": "nM"}, {"measurement": "EC50", "setting": "HT-29 cells; [5]", "result": 0.117, "unit": "nM"}, {"measurement": "Inhibition ratio", "setting": "MLK1(h)", "result": 98, "unit": "%"}, {"measurement": "Inhibition ratio", "setting": "PAK1(h)", "result": 4, "unit": "%"}, {"measurement": "Inhibition ratio", "setting": "MOK(h)", "result": "−15", "unit": "%"}, {"measurement": "Inhibition ratio", "setting": "Flt4(h)", "result": 93, "unit": "%"}, {"measurement": "Inhibition ratio", "setting": "PKCα(h)", "result": 6, "unit": "%"}, {"measurement": "Inhibition ratio", "setting": "PIP5K1a(h)", "result": 21, "unit": "%"}, {"measurement": "Inhibition ratio", "setting": "PTK5(h)", "result": 51, "unit": "%"}, {"measurement": "Inhibition ratio", "setting": "IRAK1(h)", "result": 32, "unit": "%"}, {"measurement": "Inhibition ratio", "setting": "TSSK2(h)", "result": "−6", "unit": "%"}, {"measurement": "Inhibition ratio", "setting": "CDK3/cyclinE(h)", "result": "−13", "unit": "%"}, {"measurement": "Inhibition ratio", "setting": "Flt1(h)", "result": 100, "unit": "%"}, {"measurement": "Inhibition ratio", "setting": "CLK2(h)", "result": 77, "unit": "%"}, {"measurement": "Inhibition ratio", "setting": "PKG1α(h)", "result": "−12", "unit": "%"}, {"measurement": "Inhibition ratio", "setting": "EphA1(h)", "result": 3, "unit": "%"}, {"measurement": "Inhibition ratio", "setting": "[3]", "result": 45, "unit": "%"}, {"measurement": "Inhibition ratio", "setting": "Abl(h)", "result": 102, "unit": "%"}, {"measurement": "Inhibition ratio", "setting": "MYLK2(h)", "result": 55, "unit": "%"}, {"measurement": "Inhibition ratio", "setting": "MEKK2(h)", "result": 3, "unit": "%"}, {"measurement": "Inhibition ratio", "setting": "Yes(h)", "result": 85, "unit": "%"}]}]}
